Tests used:
[1] = system: MEC; test: MTT assay, cell viability, MEC; type: cell-based, human; settings: for cell viability compared to control: 24 hours
Experimental: The cytotoxicity of PQ1 in MEC and T47D cells using MTT assay was also determined. Cells were treated with 10, 100, 200, and 500 nM PQ1 for 24 hours. MTT assay was performed according to the manufacture's recommendations. A 200 nM PQ1 has 67% cell viability compared to controls (FIG. 16). Treatments of 100 and 200 nM PQ1 have 95% and 103% MEC cell viability compared to control. However, both MEC and T47D cells decrease cell viability to 50% and 65% at 1 μM PQ1, respectively. Thus, 100-200 nM of PQ1 is sufficient to enhance GJIC activity.
MTT assay. MTT (3-(4,5-dimethyl thiazol-2-yl)-2,5-diphenyl tetrazolium bromide) assay was performed with adherent cell cultures using a culture medium free of phenol red and of serum. Solution containing MTT was metabolized by the cells (incubation period 3 hours). MTT is a tetrazolium salt (yellowish) that is cleaved to formazan crystals by the succinate dehydrogenase system which belongs to the mitochondrial respiratory chain, and is only active in viable cells. The mitochondrial succinate dehydrogenase reduces the MTT crystals into purple formazan in the presence of an electron coupling reagent. The more viable cells will be presented in a well, the more formazan dye will be produced. After solubilization of the MTT crystals with the solubilization solution MTT, the amount of dye will be measured spectrophotometrically at 540 nm.

[2] = system: active caspase 3; test: Western blot of active caspase 3 in T47D cells; type: cell-based, human
Experimental: T47D cells were treated with 0, 200 nM, 500 nM and 1 μM PQ1 for 24 hours. Treatment with succinic acid was used as control. Western blot analysis was performed. Nitrocellulose membrane was blotted with the active form of caspase 3 antibodies (16 kDa). Actin acts as loading control. Graphical presentation of three experiments are presented with statistical significance, p<0.05.
Western Blot analysis: Cells were grown in RPMI media until they were 90% confluent in 75 cm2 flasks. Cells were dosed with 200, 500 nM of PQ1 for 24 hours. Cells were harvested with lysis buffer and centrifugated. Cell lysate was run on a 12% SDSpolyacrylamide gel electrophoresis (PAGE) and transferred to nitrocellulose membrane. Membrane was incubated with Caspase Antibody. Western blots were detected by enhanced chemiluminescence detection reagents.
The effect of PQ1 on apoptosis was further examined by detecting the active form of caspase 3. T47D cells were treated with […] PQ1 for 24 hours. Western blot analysis was performed using active form of caspase 3 antibodies. A 200 nM PQ1 causes 1.5-fold increase of active caspase 3 compared to control (FIG. 18). However, a decrease of caspase is observed in higher concentrations, a common effect in apoptotic protein expression. This is due to the cytotoxicity response of the cells.
Western Blot Analysis. Cells were grown in serum supplemented RPMI media until they were 90% confluent in 75 cm^2 flasks. Cells were kept in starving media containing phenol red-free DMEM with 5% charcoal dextran stripped serum, overnight. Cells were dosed with 0, 10, 100, 200 and 500 nM of PQ1 for 24 hours. Cells were washed three times with cold PBS and then were harvested using lysis buffer (20 mM Tris pH 7.5, 0.5 mM EDTA, 0.5 mM EGTA, 0.5% Triton X-100) with 1:1000 dilution of protease inhibitors (Sigma-Aldrich, Saint Louis, Mo.). Cell lysate was sonicated and centrifuged at 13,000 rpm for 30 minutes at 4° C. […] Western blots were detected by enhanced chemiluminescence detection reagents (Pierce, Rockford, Ill., USA).

[3] = system: T47D cells; test: Electron microscopy of PQ1-treated cells; type: cell-based, human; settings: PQ1 treatment
[4] = system: caspase-3; test: CoCl2 chemical hypoxia in R28 cells, caspase-3 activation by Western blot; type: cell-based, rat
Experimental: (§1) (A) About 70% confluent retinal R28 cells were treated with 100, 200 and 500 μM CoCl2 for 24 h with or without the pre-treatment of PQ1 (10 μM, 40 min) in a cell culture chamber (5% CO2, room air, 37° C.). Caspase-3 activation was determined by Western blotting in whole cell homogenates (WCH). (B) HIF1α stabilization was measured in the nuclear extracts (NE) after treatment with 500 μM CoCl2 at different time intervals with or without the pretreatment of PQ1. […] Levels of Cx43 and phosphoCx43-Ser368 are measured in WCH. β-Actin is used as a loading control.
Approximately 70% confluent retinal R28 cells were pre-incubated with PQ1 (10 μM, 40 min), followed by CoCl2 treatments at 100, 200 and 500 μM for different time periods in a cell culture chamber (5% CO2, room air, 37° C.). Hypoxia induction was confirmed by testing the hypoxia-inducible factor 1-α (HIF1α) protein expression levels in nuclear extracts by Western blotting.
Western blot. Western blotting was performed as described previously. […]
Next, it was determined whether PQ1 inhibition of gap junctions could prevent retinal neurosensory R28 cells from apoptosis using a chemical (CoCl2)-induced ischemia system as our model. […]

[5] = system: Cx43; test: Western blot of Cx43 and phosphoCx43-Ser368 in R28 cells; type: cell-based, rat; settings: PQ1, CoCl2 or a combination of both
Experimental: as §1
Western blot. Western blotting was performed as described previously. Anti-Cx43 was purchased from Fred Hutchinson cancer research center (# Cx43NT1), anti-HIF1a was purchased from Novus Biologicals (# NB100-105), and anti-caspase-3 (# 9661), phosphor-Cx43 (Ser368) (#3511S) were purchased from Cell Signaling Technology and anti-b-actin was purchased from Sigma (# A5441).
Next, it was determined whether PQ1 inhibition of gap junctions could prevent retinal neurosensory R28 cells from apoptosis using a chemical (CoCl2)-induced ischemia system as our model. […] CoCl2 at 500 μM caused stabilization of HIF1a in the nuclear extracts and this stabilization started as early as three hours after treatment (FIG. 20B). This confirmed induction of hypoxia. […]

## COc1cc(NCCCN)c2nccc(C)c2c1Oc1cccc(C(F)(F)F)c1.O=C(O)CCC(=O)O [PQ1, 6-Methoxy-8-[(3-aminopropyl)amino]-4-methyl-5-(3-trifluoromethylphenyloxy) quinoline succinic acid]
[1]; 100 nM
  cell viability compared to control: 95%
[1]; 200 nM
  cell viability compared to control: 103%
[1]; 1 μM
  cell viability: 50%
[2]; 200 nM, 24 hours, compared to control
  increase of active caspase 3: 1.5 fold
[2]; 200 and 500 nM
  increase in the expression of active caspase 3: 50%
[2]; higher concentrations, 24 hours
  active caspase 3: decrease
[3]
  mitochondria by electron microscopy: Mitochondrial damage
[4]; PQ1 10 μM 40 min pre-incubation, then 500 μM CoCl2 24 h
  CoCl2-induced activation of caspase-3: blocked the activation of caspase-3 substantially
[4]; PQ1 alone
  activation of caspase-3: did not cause activation
[5]
  Cx43 gap junction protein levels: did not cause any change
  phosphorylation of Cx43 at residue ser368: did not cause any change
